The text below walks through data of patent US20030036633A1, “DNA encoding bradykinin B1 receptor” (Merck & Co., Inc., priority 1994, published 2003).

What is called IC50 is the concentration needed to halve the response being measured.

In assay [1] the target is T1, B1 receptor in IMR-90 cells (Homo sapiens, UniProt P46663).
T1 construct: 33E9) with the B1 receptor in IMR-90 cells (IMR-90); endogenous in cells; host or cells: IMR-90 cells (ATCC CCL 186)
T1 sequence (P46663 1-353): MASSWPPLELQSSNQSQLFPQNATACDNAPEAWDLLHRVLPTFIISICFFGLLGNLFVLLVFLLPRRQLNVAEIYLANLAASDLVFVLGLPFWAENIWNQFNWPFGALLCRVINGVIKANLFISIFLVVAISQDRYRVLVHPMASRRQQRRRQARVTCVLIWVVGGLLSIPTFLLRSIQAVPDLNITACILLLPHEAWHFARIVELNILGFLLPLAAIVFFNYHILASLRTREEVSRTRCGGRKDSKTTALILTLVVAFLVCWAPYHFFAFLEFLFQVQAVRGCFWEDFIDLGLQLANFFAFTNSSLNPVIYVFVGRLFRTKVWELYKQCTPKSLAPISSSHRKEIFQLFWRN
Description: Displacement of 1 nM [3H]des-Arg10kallidin, membrane binding assay, IMR-90.

In assay [2] the target is T2, cloned human B1 bradykinin receptor in transiently transfected COS-7 cells (COS 33E9) (Homo sapiens, UniProt P46663).
T2 construct: the full-length open reading frame of the B1 DNA (encoding a protein of about 40.4 kDa =about base 209 to about base 1267); expressed in transfected cells; host or cells: COS-7 cells, transient electroporation of clone 33E9 (pcDNA3 library vector)
T2 sequence (P46663 1-353): T1 sequence (P46663 1-353)
Description: Displacement of 1 nM [3H]des-Arg10kallidin, membrane binding assay, COS 33E9. The settings on record: for affinity for / displacement of [3H]des-Arg10kallidin from the cloned receptor, in words: cloned B1 receptor expressed in COS-7 cells. The method, then:
Transient expression of the cloned B1 bradykinin receptor in COS-7 cells was accomplished by electroporation using a Biorad Gene Pulser. […] Binding assays were performed at room temperature for 45 minutes. Reactions were terminated by filtration using an Inotech cell harvester onto glass fiber filters (Inotech) that had been briefly soaked in 0.3% polyethyleneimine. The filters were washed five times with 1 ml per well of cold PBS and counted in a liquid scintillation counter. Alternatively, reactions were collected using a Tomtec cell harvester 96 onto 0.3% polyethyleneimine presoaked glass fiber filters (Pharmacia, printed filtermat for use with the 1205 Betaplate). The filter was washed five times with a total of 10 ml per well of cold 1× PBS, dried and sealed in a bag (Pharmacia) containing scintillation fluid. Counting was accomplished using a LKB1205 Betaplate liquid scintillation counter.
(Loss of bound radioactivity is the signal in a displacement assay; it reports binding, not function.)

The subject of another assay is IMR-90 cells. The experiment in a line: IL-1beta treatment of IMR-90 cells, number of B1 bradykinin receptors. In kind it is cell-based, human.
For assay [3], the target named is T3, B1 bradykinin receptor present in human aorta (Homo sapiens, UniProt P46663).
T3 construct: The B1 bradykinin receptor present in human aorta; from tissue; host or cells: human aorta
T3 sequence (P46663 1-353): T1 sequence (P46663 1-353)
Description: Affinity at B1 bradykinin receptor present in human aorta. In kind it is binding. The settings on record: R.W.R, unpublished data.

The target in assay [4] is cloned human B1 bradykinin receptor (clone 33E9) (human) (UniProt P46663). Description: displacement of 1 nM [3H]des-Arg10kallidin, membrane binding assay, COS-7 cells transiently transfected with clone 33E9.
Assay [5] concerns the target T4, B1 bradykinin receptor in IMR-90 cells (human, UniProt P46663 1-353).
T4 construct: whole, on cells; Endogenous receptor; also called B1 receptor expressed in IMR-90 cells
T4 sequence (looked up): T1 sequence (P46663 1-353)
Description: displacement of 1 nM [3H]des-Arg10kallidin, membrane binding assay, IMR-90 cells. The method, then: Binding assays were performed at room temperature for 45 minutes. Reactions were terminated by filtration using an Inotech cell harvester onto glass fiber filters (Inotech) that had been briefly soaked in 0.3% polyethyleneimine. The filters were washed five times with 1 ml per well of cold PBS and counted in a liquid scintillation counter. Alternatively, reactions were collected using a Tomtec cell harvester 96 onto 0.3% polyethyleneimine presoaked glass fiber filters (Pharmacia, printed filtermat for use with the 1205 Betaplate). The filter was washed five times with a total of 10 ml per well of cold 1× PBS, dried and sealed in a bag (Pharmacia) containing scintillation fluid. Counting was accomplished using a LKB₁₂₀₅ Betaplate liquid scintillation counter.
The IC₅₀'s were determined by the displacement of 1 nM [³H]des- Arg¹⁰kallidin in the membrane binding assay described above.

In a further assay the target is T5, B1 receptor (Homo sapiens, UniProt P46663).
T5 construct: expressed in transfected cells; host or cells: Xenopus laevis oocytes injected with cRNA from a pool of about 800 library clones
T5 sequence (P46663 1-353): T1 sequence (P46663 1-353)
Description: Electrophysiology of cRNA-injected Xenopus oocytes monitoring the Ca2+ sensitive Cl- channel. In kind it is cell-based. Particulars: oocytes injected with cRNA of strongest positive pool.

[6] abbreviates: displacement of 1 nM [3H]des-Arg10kallidin, IMR-90 membranes, read-out: IC50, IMR-90.
The mark [7] stands for this setting: displacement of 1 nM [3H]des-Arg10kallidin, membranes of transiently transfected COS-7 cells, read-out: IC50, COS 33E9.

Entries after “also recorded” stand apart in the source; their conditions may differ. Read-outs that look alike come from different tables or passages of the source. Residues, ends and D or L forms follow the SMILES beside them.

Turning to `CC[C@H](C)[C@H](NC(=O)[C@H](Cc1ccc(O)cc1)NC(=O)[C@@H]1CCCN1C(=O)[C@H](CCCNC(=N)N)NC(=O)[C@H](CCCNC(=N)N)NC(C)=O)C(=O)N[C@@H](CC(C)C)C(=O)O` [Acetylated Neurotensin(8-13)], the IC50 in assay [1] and in assay [2] was > 10 µM in each case.
For `CC[C@H](C)[C@H](NC(=O)[C@H](Cc1ccc(O)cc1)NC(=O)[C@@H](NC(=O)[C@H](CCCNC(=N)N)NC(=O)[C@@H](N)CC(=O)O)C(C)C)C(=O)N[C@@H](Cc1cnc[nH]1)C(=O)N1CCC[C@H]1C(=O)N[C@@H](Cc1ccccc1)C(=O)O` [Angiotensin II], the IC50 in assay [1] (setting [6]) and in assay [2] (setting [7]) was > 10 µM throughout.
As for `NC(=O)CC[C@@H]1NC(=O)[C@H](Cc2ccccc2)NC(=O)[C@H](Cc2ccc(O)cc2)NC(=O)[C@@H](N)CSSC[C@@H](C(=O)N2CCC[C@H]2C(=O)N[C@@H](CCCN=C(N)N)C(=O)NCC(N)=O)NC(=O)[C@H](CC(N)=O)NC1=O` [Arg Vasopressin], the IC50 in assay [1] and in assay [2] was > 10 µM each time.
Take `N=C(N)NCCC[C@H](N)C(=O)N1CCC[C@H]1C(=O)N1CCC[C@H]1C(=O)NCC(=O)N[C@@H](Cc1ccccc1)C(=O)N[C@@H](CO)C(=O)N1CCC[C@H]1C(=O)O` [Bradykinin(1-7)] (H-RPPGFSP-OH): the concentration for half-maximal inhibition (IC50) in assay [1] and in assay [2] was > 10 µM each time.
Turning to `N=C(N)NCCC[C@H](NC(=O)[C@H](Cc1ccccc1)NC(=O)[C@@H]1CCCN1C(=O)[C@H](CO)NC(=O)[C@H](Cc1ccccc1)NC(=O)CNC(=O)[C@@H]1CCCN1C(=O)[C@@H]1CCCN1)C(=O)O` [Bradykinin(2-9)] (H-PPGFSPFR-OH; N-terminus and C-terminus assumed), the half-maximal inhibitory concentration (IC50) in assay [1] (setting [6]) and in assay [2] (setting [7]) was > 10 µM throughout.
For `NC(N)=NCCC[C@H](NC(=O)[C@H](Cc1ccccc1)NC(=O)[C@@H]1CCCN1C(=O)[C@H](CO)NC(=O)[C@H](Cc1ccccc1)NC(=O)CNC(=O)[C@@H]1CCCN1C(=O)[C@@H]1CCCN1C(=O)[C@@H](N)CCCN=C(N)N)C(=O)O` [Bradykinin] (H-RPPGFSPFR-OH), the IC50 in assay [1] and in assay [2] was > 10 µM each time.
On to `CC[C@H](C)[C@H](NC(=O)[C@H](CCCNC(=N)N)NC(=O)[C@H](CCCNC(=N)N)NC(=O)[C@H](CC(C)C)NC(=O)[C@H](Cc1ccccc1)NC(=O)CNC(=O)CNC(=O)[C@@H](N)Cc1ccc(O)cc1)C(=O)N[C@@H](CCCNC(=N)N)C(=O)N1CCC[C@H]1C(=O)N[C@@H](CCCCN)C(=O)N[C@@H](CC(C)C)C(=O)N[C@@H](CCCCN)C(=O)N[C@@H](Cc1c[nH]c2ccccc12)C(=O)N[C@@H](CC(=O)O)C(=O)N[C@@H](CC(N)=O)C(=O)N[C@@H](CCC(N)=O)C(=O)O` [Dynorphin(1-17)], for which the half-maximal inhibitory concentration (IC50) in assay [1] and in assay [2] was > 7 µM throughout.
Consider `CC[C@H](C)[C@H](NC(=O)[C@H](CC(=O)O)NC(=O)[C@H](CC(C)C)NC(=O)[C@H](Cc1cnc[nH]1)NC(=O)[C@@H]1CSSC[C@H](N)C(=O)N[C@@H](CO)C(=O)N[C@H]2CSSC[C@H](NC(=O)[C@H](CCC(=O)O)NC(=O)[C@H](CCCCN)NC(=O)[C@H](CC(=O)O)NC(=O)[C@H](CCSC)NC(=O)[C@H](CC(C)C)NC(=O)[C@H](CO)NC(=O)[C@H](CO)NC2=O)C(=O)N[C@@H](C(C)C)C(=O)N[C@@H](Cc2ccc(O)cc2)C(=O)N[C@@H](Cc2ccccc2)C(=O)N1)C(=O)N[C@H](C(=O)N[C@@H](Cc1c[nH]c2ccccc12)C(=O)O)[C@@H](C)CC` [Endothelin I], for which the IC50 in assay [1] (setting [6]) and in assay [2] (setting [7]) was > 1 µM each time.
In the case of `NC(N)=NCCC[C@@H](N)C(=O)N[C@@H](CCCN=C(N)N)C(=O)N1CCC[C@H]1C(=O)N1C[C@H](O)C[C@H]1C(=O)NCC(=O)N[C@@H](Cc1cccs1)C(=O)N[C@@H](CO)C(=O)N1Cc2ccccc2C[C@@H]1C(=O)N1[C@H](C(=O)N[C@@H](CCCN=C(N)N)C(=O)O)C[C@@H]2CCCC[C@@H]21` [Hoe 140], the IC50 in assay [1] (setting [6]) and in assay [2] (setting [7]) was > 10 µM in each case.
As for `CC(C)C[C@H](NC(=O)[C@H](Cc1ccccc1)NC(=O)CNC(=O)CNC(=O)[C@@H](N)Cc1ccc(O)cc1)C(=O)O` [Leu-Enkephalin], the IC50 in assay [1] and in assay [2] was > 10 µM in each case.
Turning to `CC[C@H](C)[C@@H]1NC(=O)[C@H](Cc2ccc(O)cc2)NC(=O)[C@@H](N)CSSC[C@@H](C(=O)N2CCC[C@H]2C(=O)N[C@@H](CC(C)C)C(=O)NCC(N)=O)NC(=O)[C@H](CC(N)=O)NC(=O)[C@H](CCC(N)=O)NC1=O` [Oxytocin], the IC50 in assay [1] (setting [6]) and in assay [2] (setting [7]) was > 10 µM throughout.
For the molecule `CSCC[C@H](NC(=O)[C@H](CC(C)C)NC(=O)CNC(=O)[C@H](Cc1ccccc1)NC(=O)[C@H](Cc1ccccc1)NC(=O)[C@H](CCC(N)=O)NC(=O)[C@H](CCC(N)=O)NC(=O)[C@@H]1CCCN1C(=O)[C@H](CCCCN)NC(=O)[C@@H]1CCCN1C(=O)[C@@H](N)CCCN=C(N)N)C(N)=O` [Substance P], the half-maximal inhibitory concentration (IC50) in assay [1] (setting [6]) and in assay [2] (setting [7]) was > 10 µM in each case.
With IL-1β: cytokine IL-1β (R & D Systems), in the assay with IMR-90 cells, the “stimulation of the number of B1 bradykinin receptors” value is on record as “approximately 7 fold”.
With “[des-Arg^10],[3,4-^3H(N)]-kallidin [[^3H]des-Arg^10kallidin]”, the “affinity for / displacement of [3H]des-Arg10kallidin from the cloned receptor, in words” value (“affinity for / displacement” below) in assay [2] is given as “high affinity binding”.
The same measure, in the same setting: the value for des-Arg^9Leu^8bradykinin was “high affinity binding”.
As for des-Arg^9bradykinin, the affinity in assay [3] is reported as > 1000 nM. For the same molecule, the “affinity for the B1 receptor in IMR-90 cells, in words” value in assay [1] (IMR-90 cells) was “relatively low affinity”. Besides, the “affinity for / displacement” value in assay [2] is on record as “relatively low affinity”.
Take des-Arg^10HOE 140 (peptide): the values for the concentration for half-maximal inhibition (IC50) in assay [4] and in assay [5] were 0.094 µM and 0.04 µM, respectively.
In the case of des-Arg^10Leu^9kallidin, the “block of des-Arg10kallidin response” value on B1 receptor is “blocked”. Besides, in assay [2], the “affinity for / displacement” value is recorded as “high affinity binding; also recorded: effectively displaces”.
As for des-Arg^10kallidin, the “agonist response of Ca2+ sensitive Cl- channel” value at B1 receptor was “produced a response”.
